Here are results for 31 compounds from PubChem BioAssay (NCI).

“And” between values parts separate entries of the source, which are not always exact repeats. Identical values can stand only once.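 Growth conditions: 96-well plates. Treatment: test compound, 48 hours, 5 concentrations. Analysis: linear interpolation between bracketing concentrations; unreached endpoints set to highest concentration. GI50 marks 50% less growth. TGI denotes the concentration required for complete inhibition of growth.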 Bounds are passed on as bounds.

Test in all cases: NCI tumour cell line growth inhibition, 48 h
Test [1] concerns OVCAR-3 ovarian.
In test [2] the test system is HCC-2998 colon.
Test [3] deals with OVCAR-4 ovarian.
The test system of test [4] is SK-MEL-2 melanoma.
Test [5] relates to OVCAR-5 ovarian.
The test system of test [6] is ACHN renal.
Test [7] concerns SK-MEL-28 melanoma.
The subject of test [8] is UACC-257 melanoma.
Test [9] deals with NCI-H460 lung.
In test [10] the test system is RXF 393 renal.

Regarding `Cc1nc2c(=S)[nH]ncc2[nH]1`, the TGI in test [1], in test [2], in test [3], in test [4], in test [5] and in test [6] was more than 100 µM in each case. Besides, the TGI in [7] and in test [8] was more than 100 µM each time.

As to `[O-]/[N+](=C\c1ccccc1)[C@H](COCc1ccccc1)c1ccccc1`, the TGI in test [1], in test [9], in test [2], in [4], in [5] and in test [6] was more than 100 µM throughout. The TGI in test [7], in [10] and in test [8] was more than 100 µM in each case.

On to `C1=C(c2ccccc2)CN(c2ccccc2)OC1`, for which the TGI in test [1], in test [9], in test [2], in test [4], in test [5] and in test [6] was more than 100 µM each time. Further, the TGI in test [7] and in test [10] was more than 100 µM in each case.

Turning to `O=C1C=CC2CCC1C2` (stereo not drawn), the TGI in test [1] is more than 100 µM; in test [9], more than 100 µM; in test [2], 89.9 µM; in [4] it was more than 100 µM; in test [5], 61.6 µM; in test [6] it was more than 100 µM. For the same compound, the TGI was 89.9 µM in [7] and more than 100 µM in test [8].

On to `CNC(=O)c1ccccc1-[s+]1c2ccccc2c(=O)n1C` (stereo not drawn), for which the TGI in [1], in [3], in test [4], in test [5], in test [6] and in test [7] was more than 100 µM throughout. Further, the TGI in test [10] and in test [8] was more than 100 µM in each case.

For the compound `CC(=O)NC1C(OCc2ccccc2)OC(CO)C(O)C1OCC(=O)NC(C)C(=O)NC(CCC(=O)NCCCCNc1ccc([N+](=O)[O-])c2[nH]c3ccccc3c(=O)c12)C(N)=O` (stereo not drawn), the TGI in test [1], in test [9], in [2], in test [3], in test [4] and in test [5] was more than 100 µM in each case. Besides, the TGI in [6] and in test [7] was more than 100 µM each time.

Consider `CC(=O)OCC1OC(Nc2[nH]c(=O)n(C)c(=O)c2-c2csc(N)n2)C(OC(C)=O)C(OC(C)=O)C1OC(C)=O` (stereo not drawn), for which the TGI in [1], in [9], in test [3], in test [4], in test [5] and in test [6] was more than 100 µM throughout. Further, the TGI in test [7] and in test [8] was more than 100 µM each time.

In the case of `COc1ccc(-c2nc(N)c(C#N)c3c2CCS(=O)(=O)c2ccc(C)cc2-3)cc1OC`, the TGI in [1] was more than 100 µM; in test [9], more than 100 µM; in test [2] it was more than 100 µM; in test [3], more than 100 µM; in [4] it was 85.2 µM; in [5] it was more than 100 µM. The TGI in test [6], in [7] and in test [8] was more than 100 µM throughout.

Take `CCN(CC)CCNC(=O)c1ccccc1NC(=O)C(=O)Nc1ccccc1C(=O)NCCN(CC)CC`: the TGI in test [1], in test [9], in test [2], in test [3], in test [4] and in test [5] was more than 100 µM each time. Moreover, the TGI in test [6] was more than 100 µM; in test [7], more than 100 µM; in test [8], 35.5 µM.

`O=C1CSC2(CC(/C=C/c3ccccc3)=NN2c2cccc(S(=O)(=O)O)c2)N1c1nc2ccccc2s1` (stereo not drawn): the TGI is more than 100 µM in test [9]; more than 100 µM in test [2]; 54.1 µM in test [3]; 49.5 µM in test [4]; 56.5 µM in [5]; more than 100 µM in test [6]. For the same compound, the TGI in test [7] was more than 100 µM; in [10] it was 51.7 µM; in test [8], more than 100 µM.

Regarding `Nc1nc2c(=O)c3ccccc3sc2s1`, the TGI in test [1], in test [9], in test [4], in [5], in test [6] and in [7] was more than 100 µM each time. For the same compound, the TGI in test [10] and in test [8] was more than 100 µM each time.

Consider `O=C1N[C@H]2c3c(Cl)sc(Cl)c3/C(=N/O)[C@H]2O1`, for which the TGI in [1], in test [9], in test [2], in test [4], in [5] and in [6] was more than 100 µM throughout. Moreover, the TGI in [7], in test [10] and in [8] was more than 100 µM throughout.

`COc1ccc(/C=C2\CN(C)Cc3c2nc(N)nc3-c2ccc(OC)cc2)cc1`: the TGI in test [1], in test [9], in [2], in test [4], in test [5] and in test [6] was more than 100 µM in each case. The TGI in test [7] and in test [10] was more than 100 µM throughout.

As for `CO/C(=N\N=C\c1cc(OC)ccc1OC)c1ccncc1`, the TGI in test [9], in test [2], in test [4], in [5], in [6] and in [7] was more than 10 µM throughout. In test [10], this compound yielded a TGI of more than 10 µM.

As to `COC(=O)c1cn(CCCC(=O)O)nn1`, the TGI in test [9], in test [2], in [3], in test [4], in [6] and in [7] was more than 100 µM in each case. The TGI in test [10] and in test [8] was more than 100 µM in each case.

In the case of `O=C(CP(c1ccccc1)c1ccccc1)c1cccc(C(=O)CP(c2ccccc2)c2ccccc2)c1`, the TGI in [9], in test [2], in test [3], in test [4], in test [5] and in [6] was more than 100 µM throughout. Also, the TGI in test [7], in [10] and in test [8] was more than 100 µM each time.

As to `C/C=C/[C@@]1(OC(=O)c2ccccc2)C[C@@H]2CCCC[C@@H]21`, the TGI came to 34.2 µM in [9]; 44.3 µM in [2]; 32.2 µM in test [3]; 30.3 µM in test [4]; 30.8 µM in [5]; 31.5 µM in [6]. Besides, the TGI came to 32.9 µM in [7] and 34.1 µM in [8].

With `O=C(O)CCCl`, the TGI in test [9], in test [3], in [4], in test [5], in test [6] and in test [7] was more than 5000 µM in each case. The TGI in test [10] and in test [8] was more than 5000 µM in each case.

Regarding `O=C(CSc1nnc(-c2ccc(N=Cc3ccc(Cl)cc3)cc2)o1)Nc1ccccc1Cl`, the TGI in [9], in test [3], in test [4], in [6], in test [7] and in test [10] was more than 100 µM throughout. This compound also yielded a TGI in test [8] of more than 100 µM.

In the case of `C1=C\SS/C=C\SS/C=C\SS/C=C\SS/1`, the TGI in test [9] was 68.3 µM; in [2], more than 100 µM; in test [3], more than 100 µM; in [4], more than 100 µM; in test [5], more than 100 µM; in test [6], more than 100 µM. For the same compound, the TGI in test [7], in test [10] and in test [8] was more than 100 µM each time.

As for `O=C(Nc1c(O)[nH]c(=S)[nH]c1=O)c1ccccn1`, the TGI in test [1], in test [9], in [3], in test [4], in [5] and in test [6] was more than 100 µM throughout. Moreover, the TGI in test [7] and in [8] was more than 100 µM each time.

In the case of `COc1cccc2c1OC1c3ccccc3OCC1C2` (stereo not drawn), the TGI in test [1], in [2], in test [4], in test [5] and in test [8] was more than 100 µM in each case.

As for `C=C(C)C(=O)CC[C@@H](C)[C@H]1[C@@H](OC2OC(CO)C(O)C(O)C2O)C[C@@]2(C)[C@@H]3C[C@H](O)C4C(C)(C)[C@@H](OC5OC(CO)C(O)C(O)C5O)CC[C@@]45C[C@@]35CC[C@]12C` (stereo partly drawn), the TGI in [1], in test [9], in test [2], in test [3], in test [4] and in test [5] was more than 100 µM in each case. Also, the TGI in test [6], in test [7] and in [8] was more than 100 µM throughout.

Consider `CCC(C)[C@@H](NCc1ccccc1)[C@H](OCc1ccccc1)[C@@H]1COC(C)(C)O1` (stereo partly drawn), for which the TGI was more than 100 µM in test [1]; more than 100 µM in test [3]; 35 µM in [4]; 90.8 µM in test [5]; 49.7 µM in test [6]; 71.4 µM in [7]. The TGI in [8] was 38.1 µM.

As for `CC(C)(C)OC(=O)CN1CCNCCNCC1`, the TGI in test [1], in [9], in [3], in test [4], in [5] and in test [6] was more than 100 µM throughout. Also, the TGI in test [7], in test [10] and in test [8] was more than 100 µM throughout.

As for `CN(C)c1nc2sc3c(c2c(=O)o1)CCCC3`, the TGI is more than 100 µM in test [9]; more than 100 µM in test [2]; more than 100 µM in test [3]; 99.4 µM in test [4]; more than 100 µM in [5]; more than 100 µM in test [6]. The TGI in test [7], in [10] and in test [8] was more than 100 µM each time.

Regarding `CCC1(O)CC(OC2CC(N(C)C)C(OC3CC4OC5CC(=O)C(C)OC5OC4C(C)O3)C(C)O2)c2c(cc3c(c2O)C(=O)c2c(O)ccc(O)c2C3=O)C1C(=O)OC` (stereo not drawn), the GI50 in [1] is 0.00656 µM and 0.00711 µM; in test [2] it was 0.021 µM and 0.01 µM; in [4] it was 0.00919 µM and 0.00439 µM and 0.00879 µM; in [5] it was 0.00138 µM and 0.00225 µM and 0.00943 µM; in test [6] it was 0.000823 µM. Also, the TGI in test [1] is 0.0789 µM and 0.0232 µM and < 0.0174 µM; in test [2] it was 0.0607 µM and 0.0199 µM and < 0.0465 µM; in [4] it was 0.0309 µM and 0.0149 µM and 0.0148 µM.

Consider `c1csc(-c2ccc(-c3ccc(-c4ccc(-c5cccs5)s4)s3)s2)c1`, for which the TGI in [1], in test [9], in [2], in test [5], in test [6] and in test [10] was more than 100 µM each time. This compound also had a TGI in test [8] of more than 100 µM.

For the compound `CCOC(=O)CCCn1nnc(C(=O)OCC)c1C(=O)OCC`, the TGI in [9], in [2], in test [3], in test [4], in test [6] and in test [7] was more than 100 µM each time. The TGI in test [10] and in [8] was more than 100 µM throughout.

As for `O=C1c2ccccc2C(=O)N1n1c(Cc2ccccc2)n[nH]c1=O`, the TGI in test [1], in [9], in test [2], in test [3], in [4] and in test [5] was more than 100 µM throughout. Moreover, the TGI in test [6], in test [7] and in test [8] was more than 100 µM in each case.

Consider `C1CC2=C(C1)[Se]C(=C1Sc3nsnc3S1)[Se]2`, for which the TGI in [1], in test [9], in test [2], in test [3], in test [4] and in [5] was more than 100 µM each time. The TGI in [6], in test [7] and in [8] was more than 100 µM throughout.
